Results from ChEMBL document CHEMBL1157152, “Kinetic parameters and recognition of thymidine analogues with varying functional groups by thymidine phosphorylase” (Bioorg Med Chem, 2008).

Assays:
[1] = target: Thymidine phosphorylase (Escherichia coli K-12) (UniProt P07650); assay: Activity of Escherichia coli thymidine phosphorylase assessed as drug phosphorylation after 2 hrs; set-up: concentration or dose not given beside the values
[2] = target: Thymidine phosphorylase (Escherichia coli K-12) (UniProt P07650); assay: Activity of Escherichia coli thymidine phosphorylase assessed as drug phosphorylation after 1 hr; set-up: concentration or dose not given beside the values
[3] = target: Thymidine phosphorylase (Escherichia coli K-12) (UniProt P07650); assay: Activity of 10 U/mL Escherichia coli thymidine phosphorylase assessed as drug phosphorylation after 24 hrs
[4] = target: Thymidine phosphorylase (Escherichia coli K-12) (UniProt P07650); assay: Activity of Escherichia coli thymidine phosphorylase assessed as drug phosphorylation after 24 hrs
[5] = target: Thymidine phosphorylase (Escherichia coli K-12) (UniProt P07650); assay: Activity of 1 U/mL Escherichia coli thymidine phosphorylase assessed as drug phosphorylation after 1 hr
[6] = target: Thymidine phosphorylase (Escherichia coli K-12) (UniProt P07650); assay: Activity of 10 U/mL Escherichia coli thymidine phosphorylase assessed as drug phosphorylation after 1 week

Chain of Thymidine phosphorylase (Escherichia coli K-12) (P07650 whole entry, looked up): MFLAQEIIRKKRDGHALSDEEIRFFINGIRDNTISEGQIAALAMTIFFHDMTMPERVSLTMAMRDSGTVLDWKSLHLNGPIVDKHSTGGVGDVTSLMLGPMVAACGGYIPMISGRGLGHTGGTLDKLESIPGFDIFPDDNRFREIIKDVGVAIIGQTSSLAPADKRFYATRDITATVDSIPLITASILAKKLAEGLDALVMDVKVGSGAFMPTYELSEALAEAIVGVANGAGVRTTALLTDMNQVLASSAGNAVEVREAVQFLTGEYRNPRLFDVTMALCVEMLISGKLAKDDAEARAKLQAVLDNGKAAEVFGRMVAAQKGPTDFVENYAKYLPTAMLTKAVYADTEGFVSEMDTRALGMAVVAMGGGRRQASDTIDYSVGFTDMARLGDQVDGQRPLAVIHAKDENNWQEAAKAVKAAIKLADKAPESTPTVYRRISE

Row | Compound | Activity [1] [%] | Activity [2] [%] | Activity [3] [%] | other results
1 | Cc1cn([C@H]2C[C@H](S)[C@@H](CO)O2)c(=O)[nH]c1=O | 0 | 0 |  | 
2 | Cc1cn([C@H]2C[C@H](O)[C@@H](CN=[N+]=[N-])O2)c(=O)[nH]c1=O | 0 | 0 |  | 
3 | O=c1ccn([C@@H]2O[C@H](CO)[C@@H](O)[C@H]2O)c(=O)[nH]1 | 81 | 56 |  | 
4 | Cc1cn([C@@H]2C[C@H](O)[C@@H](CO)S2)c(=O)[nH]c1=O |  |  | 0 | 
5 | Cc1cn([C@H]2CC(O)[C@@H](CO)O2)c(=O)[nH]c1=O (single isomer, unassigned) | 0 | 0 |  | 
6 | Cc1cn(COC(CO)CO)c(=O)[nH]c1=O |  |  | 0 | 
7 | Cc1cn([C@H]2C[C@H](O)C[C@@H](CO)O2)c(=O)[nH]c1=O |  |  | 0 | 
8 | Cc1cn([C@H]2CC[C@@H](CO)O2)c(=O)[nH]c1=O | 6.1 | 3.2 |  | 
9 | Cc1cn([C@H]2C[C@H](O)[C@@H](CI)O2)c(=O)[nH]c1=O | 0 | 0 |  | 
10 | Cc1cn([C@H]2C[C@H](O)[C@@H](CS)O2)c(=O)[nH]c1=O | 90 | 39 |  | 
11 | Cc1cn([C@H]2C[C@H](O)[C@@H](CO)O2)c(=O)[nH]c1=O | 86 | 86 |  | Activity [4]: 82%; Activity [5]: 86%
12 | Nc1ccn([C@H]2C[C@H](O)[C@@H](CO)O2)c(=O)n1 |  |  | 0 | Activity [6]: 0%
13 | O=c1ccn([C@H]2C[C@H](O)[C@@H](CO)O2)c(=O)[nH]1 | 88 |  |  | Activity [4]: 83%
14 | Cc1nn([C@H]2C[C@H](O)[C@@H](CO)O2)c(=O)[nH]c1=O |  |  | 5.4 | Activity [6]: 7.9%
15 | Cc1cn([C@H]2C[C@H](O)[C@@H](C)O2)c(=O)[nH]c1=O | 91 | 68 |  | 
16 | Cc1cn([C@H]2C[C@H](O)[C@@H](CO)S2)c(=O)[nH]c1=O |  |  | 3.8 | 
17 | Cc1cn([C@H]2C[C@H](O)[C@@H](CN)O2)c(=O)[nH]c1=O | 36 | 11 |  | 
18 | Cc1cn([C@H]2C[C@H](O)[C@@H](CCl)O2)c(=O)[nH]c1=O | 70 | 24 |  | 
19 | Cc1cnc(=O)n([C@H]2C[C@H](O)[C@@H](CO)O2)c1 |  |  | 0 | Activity [6]: 0%
20 | Cc1cn([C@@H]2C[C@H](O)[C@@H](CO)O2)c(=O)[nH]c1=O |  |  | 0 | Activity [6]: 0%
21 | Cc1cn([C@H]2C[C@H](N)[C@@H](CO)O2)c(=O)[nH]c1=O | 1.5 | 0.76 |  | 
